According to PubChem BioAssay (NCI):
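All cell lines were grown in 96-well plates and treated with compound for 48 hours. Here, GI50 denotes the concentration required for 50% inhibition of growth. At the TGI there is no net growth.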

Key:
Experiment in all cases: NCI-60 cell line screen, 48 h
786-0 renal = test system: 786-0 renal
A498 renal = test system: A498 renal
A549 NSCLC = test system: A549 NSCLC
ACHN renal = test system: ACHN renal
CAKI-1 renal = test system: CAKI-1 renal
CCRF-CEM leukemia = test system: CCRF-CEM leukemia
COLO 205 colon = test system: COLO 205 colon
DLD-1 colon = test system: DLD-1 colon
DMS 273 small cell lung = test system: DMS 273 small cell lung
HCC-2998 colon = test system: HCC-2998 colon
HCT-116 colon = test system: HCT-116 colon
HCT-15 colon = test system: HCT-15 colon
HL-60(TB) leukemia = test system: HL-60(TB) leukemia
HOP-18 NSCLC = test system: HOP-18 NSCLC
HOP-62 NSCLC = test system: HOP-62 NSCLC
HOP-92 NSCLC = test system: HOP-92 NSCLC
HT29 colon = test system: HT29 colon
IGROV1 ovarian = test system: IGROV1 ovarian
K-562 leukemia = test system: K-562 leukemia
KM12 colon = test system: KM12 colon
KM20L2 colon = test system: KM20L2 colon
LOX IMVI melanoma = test system: LOX IMVI melanoma
LXFL 529 NSCLC = test system: LXFL 529 NSCLC
M14 melanoma = test system: M14 melanoma
MALME-3M melanoma = test system: MALME-3M melanoma
MOLT-4 leukemia = test system: MOLT-4 leukemia
NCI-H226 lung = test system: NCI-H226 lung
NCI-H23 lung = test system: NCI-H23 lung
NCI-H460 lung = test system: NCI-H460 lung
NCI-H522 lung = test system: NCI-H522 lung
OVCAR-3 ovarian = test system: OVCAR-3 ovarian
OVCAR-4 ovarian = test system: OVCAR-4 ovarian
OVCAR-8 ovarian = test system: OVCAR-8 ovarian
RPMI-8226 leukemia = test system: RPMI-8226 leukemia
RXF 393 renal = test system: RXF 393 renal
SF-268 CNS = test system: SF-268 CNS
SF-295 CNS = test system: SF-295 CNS
SF-539 CNS = test system: SF-539 CNS
SK-MEL-2 melanoma = test system: SK-MEL-2 melanoma
SK-MEL-28 melanoma = test system: SK-MEL-28 melanoma
SK-MEL-5 melanoma = test system: SK-MEL-5 melanoma
SK-OV-3 ovarian = test system: SK-OV-3 ovarian
SN12C renal = test system: SN12C renal
SNB-19 CNS = test system: SNB-19 CNS
SNB-75 CNS = test system: SNB-75 CNS
SW-620 colon = test system: SW-620 colon
TK-10 renal = test system: TK-10 renal
U251 CNS = test system: U251 CNS
UACC-257 melanoma = test system: UACC-257 melanoma
UACC-62 melanoma = test system: UACC-62 melanoma
UO-31 renal = test system: UO-31 renal

With `C1C[OH+]CCNCC[OH+]CC[OH+]CCN1.[Cl-].[Pt+4]` the GI50 (786-0 renal) was over 100 µM, the TGI (786-0 renal) was over 100 µM and the GI50 (A498 renal) was over 100 µM. For the same compound, the TGI (A498 renal) was over 100 µM, the GI50 (A549 NSCLC) was over 100 µM and the TGI (A549 NSCLC) was over 100 µM. The GI50 (ACHN renal) was over 100 µM, the TGI (ACHN renal) was over 100 µM and the GI50 (CAKI-1 renal) was over 100 µM. For the same compound, the TGI (CAKI-1 renal) was over 100 µM, the GI50 (CCRF-CEM leukemia) was 51.4 µM and the TGI (CCRF-CEM leukemia) was over 100 µM. For the same compound, the GI50 (COLO 205 colon) was over 100 µM, the TGI (COLO 205 colon) was over 100 µM and the GI50 (DLD-1 colon) was over 100 µM. The TGI (DLD-1 colon) was over 100 µM, the GI50 (DMS 273 small cell lung) was over 100 µM and the TGI (DMS 273 small cell lung) was over 100 µM. For the same compound, the GI50 (HCC-2998 colon) was over 100 µM, the TGI (HCC-2998 colon) was over 100 µM and the GI50 (HCT-116 colon) was over 100 µM. For the same compound, the TGI (HCT-116 colon) was over 100 µM, the GI50 (HCT-15 colon) was over 100 µM and the TGI (HCT-15 colon) was over 100 µM. The GI50 (HL-60(TB) leukemia) was over 100 µM, the TGI (HL-60(TB) leukemia) was over 100 µM and the GI50 (HOP-18 NSCLC) was over 100 µM. It also gave a TGI (HOP-18 NSCLC) of over 100 µM, a GI50 (HOP-62 NSCLC) of over 100 µM and a TGI (HOP-62 NSCLC) of over 100 µM. The GI50 (HOP-92 NSCLC) was over 100 µM, the TGI (HOP-92 NSCLC) was over 100 µM and the GI50 (HT29 colon) was over 100 µM. It also gave a TGI (HT29 colon) of over 100 µM, a GI50 (IGROV1 ovarian) of over 100 µM and a TGI (IGROV1 ovarian) of over 100 µM. The GI50 (K-562 leukemia) was over 100 µM, the TGI (K-562 leukemia) was over 100 µM and the GI50 (KM12 colon) was over 100 µM. It also gave a TGI (KM12 colon) of over 100 µM, a GI50 (KM20L2 colon) of over 100 µM and a TGI (KM20L2 colon) of over 100 µM. It also gave a GI50 (LOX IMVI melanoma) of over 100 µM, a TGI (LOX IMVI melanoma) of over 100 µM and a GI50 (LXFL 529 NSCLC) of over 100 µM. The TGI (LXFL 529 NSCLC) was over 100 µM, the GI50 (M14 melanoma) was over 100 µM and the TGI (M14 melanoma) was over 100 µM. For the same compound, the GI50 (MALME-3M melanoma) was over 100 µM, the TGI (MALME-3M melanoma) was over 100 µM and the GI50 (MOLT-4 leukemia) was over 100 µM. The TGI (MOLT-4 leukemia) was over 100 µM, the GI50 (NCI-H226 lung) was over 100 µM and the TGI (NCI-H226 lung) was over 100 µM. The GI50 (NCI-H23 lung) was over 100 µM, the TGI (NCI-H23 lung) was over 100 µM and the GI50 (NCI-H460 lung) was over 100 µM. The TGI (NCI-H460 lung) was over 100 µM, the GI50 (NCI-H522 lung) was over 100 µM and the TGI (NCI-H522 lung) was over 100 µM. The GI50 (OVCAR-3 ovarian) was over 100 µM, the TGI (OVCAR-3 ovarian) was over 100 µM and the GI50 (OVCAR-4 ovarian) was over 100 µM. For the same compound, the TGI (OVCAR-4 ovarian) was over 100 µM, the GI50 (OVCAR-8 ovarian) was over 100 µM and the TGI (OVCAR-8 ovarian) was over 100 µM. It also gave a GI50 (RPMI-8226 leukemia) of over 100 µM, a TGI (RPMI-8226 leukemia) of over 100 µM and a GI50 (RXF 393 renal) of over 100 µM. For the same compound, the TGI (RXF 393 renal) was over 100 µM, the GI50 (SF-268 CNS) was over 100 µM and the TGI (SF-268 CNS) was over 100 µM. It also gave a GI50 (SF-295 CNS) of over 100 µM, a TGI (SF-295 CNS) of over 100 µM and a GI50 (SF-539 CNS) of over 100 µM. It also gave a TGI (SF-539 CNS) of over 100 µM, a GI50 (SK-MEL-2 melanoma) of over 100 µM and a TGI (SK-MEL-2 melanoma) of over 100 µM. For the same compound, the GI50 (SK-MEL-28 melanoma) was over 100 µM, the TGI (SK-MEL-28 melanoma) was over 100 µM and the GI50 (SK-MEL-5 melanoma) was over 100 µM. It also gave a TGI (SK-MEL-5 melanoma) of over 100 µM, a GI50 (SK-OV-3 ovarian) of over 100 µM and a TGI (SK-OV-3 ovarian) of over 100 µM. The GI50 (SN12C renal) was over 100 µM, the TGI (SN12C renal) was over 100 µM and the GI50 (SNB-19 CNS) was over 100 µM. It also gave a TGI (SNB-19 CNS) of over 100 µM, a GI50 (SNB-75 CNS) of over 100 µM and a TGI (SNB-75 CNS) of over 100 µM. The GI50 (SW-620 colon) was over 100 µM, the TGI (SW-620 colon) was over 100 µM and the GI50 (TK-10 renal) was over 100 µM. The TGI (TK-10 renal) was over 100 µM, the GI50 (U251 CNS) was over 100 µM and the TGI (U251 CNS) was over 100 µM. For the same compound, the GI50 (UACC-257 melanoma) was over 100 µM, the TGI (UACC-257 melanoma) was over 100 µM and the GI50 (UACC-62 melanoma) was over 100 µM. It also gave a TGI (UACC-62 melanoma) of over 100 µM, a GI50 (UO-31 renal) of over 100 µM and a TGI (UO-31 renal) of over 100 µM.
